In patent US20220323427A1, “SOMATOSTATIN RECEPTOR TYPE 5 AGONIST FOR THE TREATMENT OF HYPERINSULINISM” (Crinetics Pharmaceuticals, Inc., priority 2021, published 2022):

Tests used:
major human CYP enzymes = test: CYP inhibition or induction; assay type: in vitro ADME; conditions: including CYP2C9 and CYP3A4
[1] = tested on: incretin-induced insulin secretion; test: Mixed meal tolerance test (MMTT), MAD; assay type: in vivo, human; conditions: Day 6
Experimental: An MMTT will be conducted during the MAD study to assess the impact of Compound 1 on incretin-induced insulin secretion. This will be conducted at baseline (before study drug dosing) in the MAD and at Day 6 at which Compound 1 is predicted to be at steady state.
The purpose of the MMTT is to evaluate the effect of Compound 1 on plasma insulin in response to multiple fuel sources (protein, fat) and to evaluate the impact on incretin-induced insulin secretion. Subjects are to fast at least 10 hours overnight until ingestion of the mixed meal (which is to occur approximately 4 hours after study drug dosing), and then restrict further food intake until the end of the MMTT.
Start the MMTT (i.e., drink the mixed meal) on Day −1 and Day 6 at 4 hours (±30 minutes) post-study drug dosing (i.e., Time 240 minutes) or at nominal time. The total duration of the MMTT will be approximately 3.5 hours from when the first pre-drink blood sample is collected until the last MMTT blood sample is collected. The subject is to be in the supine position during the MMTT, except while consuming the mixed meal. The procedure will be as follows:
Collect pre-drink fasting blood samples for measurement of PG, insulin, C-peptide, glucagon, GIP, and GLP-1 at the timepoints specified in (SOA).
At 4 hours after study drug dosing/Time 240 minutes (or nominal time), the subject is to drink 400 mL (2×200-mL bottles) Resource® Energy (Nestlé Health Science) drink (mixed meal) within ≤10 minutes.
Collect post-drink blood samples for measurement of PG, insulin, C-peptide, glucagon, and GLP-1 at the timepoints specified in (SOA). The subject is to not eat or drink (except for water) until the last MMTT blood sample is collected.

human pancreatic islets [2] = test: Glucagon secretion in perifused human islets; assay type: cell-based; conditions: islets from a healthy donor; G3+Arg
Experimental: For glucagon secretion, glucose (Boston BioProducts #BM-675) solutions, G3, G16.7 and G3 plus 20 mM arginine (Sigma #A8094; G3+Arg) were prepared in PB [24 mM NaHCO3 (Fisher Scientific #S233-500), 120 mM NaCl (Spectrum Chemical #S0155), 4.8 mM KCl (Fisher Scientific #P217-500), 2.5 mM CaCl2 (Fisher Scientific #C614-500), 1.2 mM MgCl2 (Sigma #M8266), 10 mM HEPES (Gibco #15630-080) and 0.1% BSA (EMD Millipore #12-675-100GM)]. Various concentrations of Compound 1 and diazoxide (Sigma #D9035) were prepared in G16.7 or in G3+Arg. On the day of the assay, ten perifusion chambers (Biorep #Peri-chamber) were loaded with a bead suspension (Biorep #Peri-beads-20) followed by 300 IEQ and another layer of bead suspension. Chambers were filled with PB, placed in the perifusion equipment and equilibrated with G3 for 74 min (flow rate=230 μL/min) followed by the perifusion steps for glucagon secretion shown in Table 3. […] Glucagon concentration was quantified using the commercially-available Mercodia Glucagon ELISA (Mercodia #10-1271-01) kit. undiluted perfusate samples were added to the supplied pre-coated assay plates. […] The optical density of each well was determined at 450 nm in a Tecan M1000Pro (Tecan, Switzerland) multiplate reader. Glucagon concentrations were calculated by regression to the standard curve using GraphPad Prism (GraphPad, San Diego, Calif.).

human pancreatic islets [3] = test: Insulin secretion in perifused human islets; assay type: cell-based; conditions: for Effect on glucose- and tolbutamide-stimulated insulin secretion: G16.7 and G16.7+Tolb
Experimental: The activity of Compound 1 on insulin and glucagon secretion in human pancreatic islets from three healthy adult donors (Prodo Labs, Aliso Viejo, Calif.) was evaluated using a perifusion system that enables dynamic insulin and glucagon measurements from the same islet preparation in response to different stimuli. Specifically, the effects on glucose-stimulated and sulfonylurea (tolbutamide)-stimulated insulin secretion and arginine-stimulated glucagon secretion were investigated and compared to those of a maximally effective concentration of diazoxide. Islets were collected in culture media (Prodo Labs #PIM-S001GMP) supplemented with 5% human AB serum (Prodo Labs #PIM-ABS001GMP), 1% glutamine-glutathione (Prodo Labs #PIM-G001GMP) and an antibiotic cocktail of amphotericin B, ciproflaxin and gentamicin (Prodo Labs #PIM-3X001GMP) and plated at a density of 1500-3000 islet equivalents (IEQ) in 10-cm nontreated tissue culture dishes (Thomas Scientific #1182M59). Islets were cultured at 37° C., 5% CO2 and 95% humidity for 20 h. Dynamic insulin secretion assays were performed using a perifusion system, Peri5 (Biorep Technologies, FL. Glucose (Boston BioProducts #BM-675) at 3 mM (G3) or 16.7 mM (G16.7), or glucose at 16.7 mM plus 100 μM tolbutamide (Sigma #T0891; G16.7+Tolb) were prepared in perifusion buffer, PB=[24 mM NaHCO3 (Fisher Scientific #S233-500), 120 mM NaCl (Spectrum Chemical #S0155), 4.8 mM KCl (Fisher Scientific #P217-500), 2.5 mM CaCl2 (Fisher Scientific #C614-500), 1.2 mM MgCl2 (Sigma #M8266), 10 mM HEPES (Gibco #15630-080) and 0.1% BSA (EMD Millipore #12675-100GM)]. Various concentrations of Compound 1 and diazoxide (Sigma #D9035) were prepared in G16.7 or in G16.7+Tolb. […] Insulin concentration was quantified using the commercially-available Mercodia Insulin ELISA (Mercodia #10-1113-10) kit. […] The optical density of each well was determined at 450 nm in a Tecan M1000Pro (Tecan, Switzerland) multiplate reader. Insulin concentrations were calculated by regression to the standard curve using GraphPad Prism (GraphPad, San Diego, Calif.).

C[C@H](NC(=O)c1cnc(C#N)c(-c2cc(F)cc(F)c2)c1N1CC[C@H](N)C1)C(F)(F)F [Compound 1, 4-[(3S)-3-aminopyrrolidin-1-yl]-6-cyano-5-(3,5-difluorophenyl)-N-[(2S)-1,1,1-trifluoropropan-2-yl]pyridine-3-carboxamide]
Potential for inhibition or induction of the major human CYP enzymes (major human CYP enzymes): little or no potential for inhibition or induction | Increase in plasma glucose AUC in MMTT ([1]; 30 mg QD): ~30% | Increase in plasma glucose AUC in MMTT ([1]; 60 mg QD): ~30% | Increase in plasma glucose AUC in MMTT ([1]; 120 mg QD): ~60% | Insulin and C-peptide in MMTT ([1]; 30-120 mg QD): more sustained suppression of insulin and C-peptide with increasing dose | Inhibition of arginine-stimulated glucagon secretion (human pancreatic islets [2]): up to 24% | Effect on glucose- and tolbutamide-stimulated insulin secretion (human pancreatic islets [3]; 0.1 μM): intermediate effect | Effect on glucose- and tolbutamide-stimulated insulin secretion (human pancreatic islets [3]; 1 μM, both phases): strongest inhibitory effect | Insulin secretion in response to 16.7 mM glucose and tolbutamide (human pancreatic islets [3]; concentration dependent, islets from three healthy adult donors): inhibited insulin secretion
